Experiments:
wild type (WT) cells [1] = test: Growth of WT yeast expressing peptides, spot dilution; format: cell-based; details: peptides expressed in WT yeast
Source text: A. Yeast 2-hybrid (Y2H) cells expressing the APC subunit bait and the galactose inducible Apc10 peptide prey grown on glucose or galactose. Cells co-expressing the Apc5 or Apc10-bait and Apc10 aptamer-prey vectors were spotted onto the appropriate media, in the presence or absence of galactose (the aptamers are Gal inducible), to confirm Y2H interactions. Growth on trp^− his^− media ensures both plasmids are maintained. A Y2H interaction will drive expression of the ADE2 gene, allowing growth on ade^− media. B. Aptamers that bind Apc10 can suppress APC mutant phenotypes. Spot dilutions of apc10Δ cells expressing an empty vector control or the one of 6 Apc10 aptamers tested. Log phase cells were 10-fold serially diluted and spotted onto plates containing either 2% glucose or 2% galactose. The plates were then incubated at 30° C. (permissive temperature) and 34° C. (restrictive stress). C. Peptides identified as binding to the yeast Apc10 APC subunit using the Y2H screen increase growth of wildtype (WT) cells. A series of APC binding peptides were transformed into WT yeast cells, spot diluted, and grown at 30° C. on media supplemented with the normal carbon source (2% glucose). […]
The six peptide expressing vectors were transformed into apc10Δ cells and assessed for temperature sensitive growth. […]

apc5^CA cells = test: Yeast replicative lifespan (RLS) assay; format: cell-based
Experimental: A. apc5^CA (temperature sensitive allele) cells were transformed with C43-4 or an empty vector. Cells grown overnight in 2% Glu were struck onto 2% Glucose plates and used for the yeast RLS assay. From the top left hand corner of the figures, top line is WT +empty vector, middle line is apc5^CA+C43-4 peptide and bottom line is apc5^CA+empty vector. B. WT cells transformed with C43-4, C2-4B or an empty vector were grown to stationary phase in 2% Glu media, then after 2 days spot diluted onto 2% Glu or 2% Gal to induce expression of the peptides.

wild type (WT) cells [2] = test: C43-4 mutant peptides, spot dilution under temperature and UV stress, WT cells; format: cell-based, yeast; details: low level expression on glucose
Experimental: The cells were exposed to 5 sec of UV from a UV box prior to incubation. The plus signs define growth compared to the empty vector control.
Residues 2, 7, 8, 10, 12 and 14 of peptide C43-4 are conserved with Htz1. All of these residues were mutated to alanine (FIG. 10). Peptides that contained mutations designed to determine which amino acids were required for function were generated. These mutant peptides were grown in wild type cells and in cells that had APC10 mutated, under temperature and UV stress conditions (FIGS. 10-12).
These cells were spot diluted on Trp^− plates and grown at the temperatures shown and/or exposed to ultraviolet (UV) irradiation (FIGS. 10-12). At low level expression on glucose, some of the mutations caused stress dependent phenotypes.
• 1. Cells were cultured overnight in Trp^− 2% glucose media • 2. The growth of the cells was determined by measuring the optical density (OD) of the cells at 600 nm (OD600) • 3. Cells were diluted to OD600 of 1 with fresh culture media • 4. 100 ul of each culture was pipetted into a well of a 96 well plate • 5. 10 ul of the each starting culture was pipetted into 90 ul of water in 4 additional wells to make a 10-fold serial spot dilution • 6. 5 ul from each serial dilution was spotted onto plates containing standard growth media with either 2% glucose or 2% galactose using a multi-pipettor • 7. The plates were exposed to UV • 8. […]

NGSSHNDLRVRRLTLISRLC [C43-4]
growth / viability of WT cells (wild type (WT) cells [1]): increases the viability of WT cells
replicative lifespan (apc5^CA cells): increased replicative lifespan
stress resistance (growth compared to empty vector) (wild type (WT) cells [2]): increased stress resistance

Reference: patent publication US11851459B2, “Methods and uses of modulators of anaphase promoting complex (APC) activity for treating cancer” (University of Saskatchewan, priority 2018, dated 2023)
